Reference: patent US4632905A, “Microbial sulfhydryl oxidase” (Novo Laboratories, Inc., priority 1985, dated 1986)
Where “and” joins values, the source holds several entries; their conditions need not be identical. Identical values can stand only once.

How the values were obtained:
Type in all cases: biochemical
Aspergillus sojae SOX [1] = assay: Substrate specificity of SOX toward low MW thiol compounds, polarographic (oxygen consumption); details: 1 mM test compound, 227 μM oxygen, 50 mM potassium phosphate pH 6.7, 30° C., corrected for auto-oxidation
Method: SOX activity may be ascertained by two methods. The activity may be determined by measuring the oxygen consumed when a suitable substrate, e.g., reduced glutathione, is oxidized enzymatically to the corresponding disulfide. The stoichiometry involved is according to the equations 1 and 2 below, namely, 1/2 oxygen consumed per disulfide formed, when the reaction is carried out in the presence of catalase activity.
The assay employs oxygen electrode techniques and is used with low MW compounds as substrates.
The ability of low MW thiol-containing compounds to serve as substrates for SOX was determined polarographically at 30° C., pH 6.7. […] Protein specificity was determined with proteins in their reductively denatured state. Reductive denaturation is accomplished by submitting the protein to a denaturant e.g., urea and a mercaptan such as beta-mercaptoethanol at pH 8.5. Renaturation is then achieved by incubating the reduced protein with the SOX for a period of time at pH 7.0. The progress of the renaturation can easily be assessed by reaction of the protein with DTNB.
The activity of the SOX preparation may be determined polarographically by measuring the oxygen consumed when a substrate e.g., reduced glutathione (GSH) is oxidized to the corresponding disulfide. The activity may also be determined spectrophotometrically using dithiobisnitrobenzoic acid (DTNB) which specifically reacts with a free sulfhydryl by measuring the absorption at 412 nm (ε=13.6×10^3 M^-1 cm^-1). Therefore, one unit of activity is defined as that amount of enzyme which catalyzes the consumption of 1.0 μmole of oxygen per minute or loss of 2.0 μmoles of free sulfhydryls per minute at 30° C., pH 6.7 using 1 mM GSH as substrate.
The substrate specificity of SOX toward low MW compounds containing a free SH moiety was ascertained by polarographic methodology. The activities were measured relative to glutathione (GSH) at 30° C. in the following assay system: 1 mM test compound, 227 μM molecular oxygen, 50 mM potassium phosphate pH 6.7, and sufficient SOX to yield a linear decrease in oxygen during the first three minutes. The rates were corrected for auto-oxidation.

Aspergillus sojae SOX [2] = assay: Inhibition of Aspergillus sojae SOX
bovine SOX = assay: Inhibition of bovine SOX; details: 1 mM concentration

For `CC(=O)N[C@@H](CS)C(=O)O` [N--acetyl-L--cysteine, N-acetyl-L-cysteine], the “% of Activity with GSH” value (Aspergillus sojae SOX [1]) was 3.0% and the “% of Activity with GSH” value (Aspergillus sojae SOX [1]; listed as N-acetyl-L-cysteine) was 3-22%.
In the case of `O=C(O)CN(CCN(CC(=O)O)CC(=O)O)CC(=O)O` [EDTA], the “Inhibition of Aspergillus sojae SOX” value (Aspergillus sojae SOX [2]; concentration not printed for this enzyme) is reported as “not inhibited” and the “Inhibition of bovine SOX” value (bovine SOX) is reported as “almost completely”.
With `CCOC(=O)[C@@H](N)CS` [L--cysteine, ethyl ester, L-cysteine ethyl ester] the “% of Activity with GSH” value (Aspergillus sojae SOX [1]) was 21.8% and the “% of Activity with GSH” value (Aspergillus sojae SOX [1]; listed as L-cysteine ethyl ester) was 3-22%.
For `O[C@H](CS)[C@@H](O)CS` [dithioerythreitol, D,L-dithioerythreitol], the “% of Activity with GSH” value (Aspergillus sojae SOX [1]) was 6.6% and the “% of Activity with GSH” value (Aspergillus sojae SOX [1]; listed as D,L-dithioerythreitol) was 3-22%.
With `OCCS` [beta-mercaptoethanol] the “% of Activity with GSH” value (Aspergillus sojae SOX [1]) was 3-22% and 4.2%.
`N[C@@H](CS)C(=O)O` [L--cysteine, L-Cysteine] was tested, and the “% of Activity with GSH” value (Aspergillus sojae SOX [1]) was 8.7% and the “% of Activity with GSH” value (Aspergillus sojae SOX [1]; listed as L-Cysteine) was 3-22%.
For `N[C@@H](CCC(=O)N[C@@H](CS)C(=O)NCC(=O)O)C(=O)O` [glutathione, δ-L-glutamyl-L-cysteinyl-glycine], the “% of Activity with GSH” value (Aspergillus sojae SOX [1]) was 100%.
For `N[C@H](CS)C(=O)O` [D--cysteine, D-cysteine], the “% of Activity with GSH” value (Aspergillus sojae SOX [1]) was 4.1% and the “% of Activity with GSH” value (Aspergillus sojae SOX [1]; listed as D-cysteine) was 3-22%.
With `O=S(=O)([O-])[O-].[Zn+2]` [ZnSO4] the “Inhibition of microbial SOX” value (Aspergillus sojae SOX [2]; 1 mM concentration) was “partially inhibited” and the “Inhibition of bovine SOX” value (bovine SOX) was “non-inhibitory”.
In the case of `O[C@H](CS)[C@H](O)CS` (racemic) [D,L--dithiothreitol, D,L-dithiothreitol], the “% of Activity with GSH” value (Aspergillus sojae SOX [1]) is reported as 5.6% and the “% of Activity with GSH” value (Aspergillus sojae SOX [1]; listed as D,L-dithiothreitol) is reported as 3-22%.
